How the values were obtained:
human TLR8 = molecular target: T1, human TLR8 (Homo sapiens, UniProt Q9NR97); test: HEK293-Blue-hTLR-8 cells assay
T1 sequence (Q9NR97 27-1041): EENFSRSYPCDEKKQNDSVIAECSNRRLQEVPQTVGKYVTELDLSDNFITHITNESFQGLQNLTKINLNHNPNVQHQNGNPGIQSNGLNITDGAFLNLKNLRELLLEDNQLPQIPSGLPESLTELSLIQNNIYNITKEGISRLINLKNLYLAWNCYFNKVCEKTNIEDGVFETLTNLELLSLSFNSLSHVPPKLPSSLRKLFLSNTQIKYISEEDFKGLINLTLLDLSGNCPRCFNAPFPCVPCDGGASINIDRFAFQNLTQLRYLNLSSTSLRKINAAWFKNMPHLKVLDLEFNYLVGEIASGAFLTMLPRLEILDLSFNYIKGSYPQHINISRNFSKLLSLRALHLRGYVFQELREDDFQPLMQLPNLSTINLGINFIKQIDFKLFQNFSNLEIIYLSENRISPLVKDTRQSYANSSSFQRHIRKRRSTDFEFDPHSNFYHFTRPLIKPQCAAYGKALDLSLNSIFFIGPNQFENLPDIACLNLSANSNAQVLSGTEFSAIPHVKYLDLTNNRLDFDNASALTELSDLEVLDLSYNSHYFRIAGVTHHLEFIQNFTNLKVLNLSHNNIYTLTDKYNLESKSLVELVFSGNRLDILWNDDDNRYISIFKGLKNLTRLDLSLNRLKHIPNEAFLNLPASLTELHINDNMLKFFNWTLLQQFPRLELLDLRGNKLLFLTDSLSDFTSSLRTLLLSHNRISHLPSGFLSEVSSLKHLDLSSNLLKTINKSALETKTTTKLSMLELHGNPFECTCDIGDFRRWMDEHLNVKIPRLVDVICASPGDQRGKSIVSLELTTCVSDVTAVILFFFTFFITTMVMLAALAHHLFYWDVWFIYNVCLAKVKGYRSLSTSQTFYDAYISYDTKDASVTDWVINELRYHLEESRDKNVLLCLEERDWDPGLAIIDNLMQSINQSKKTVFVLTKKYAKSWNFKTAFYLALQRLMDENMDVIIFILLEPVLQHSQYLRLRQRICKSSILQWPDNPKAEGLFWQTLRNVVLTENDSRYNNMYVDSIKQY

human TLR7 = molecular target: T2, human TLR7 (Homo sapiens, UniProt Q9NYK1); test: HEK293-Blue-hTLR-7 cells assay; assay type: cell-based; settings: HEK293-Blue-hTLR7 cells, R848 stimulation, 20 hrs, SEAP reporter; read-out: HEK/hTLR7 IC50
T2 construct: host or cells: HEK293 (HEK-Blue hTLR7)
T2 sequence (Q9NYK1 27-1049): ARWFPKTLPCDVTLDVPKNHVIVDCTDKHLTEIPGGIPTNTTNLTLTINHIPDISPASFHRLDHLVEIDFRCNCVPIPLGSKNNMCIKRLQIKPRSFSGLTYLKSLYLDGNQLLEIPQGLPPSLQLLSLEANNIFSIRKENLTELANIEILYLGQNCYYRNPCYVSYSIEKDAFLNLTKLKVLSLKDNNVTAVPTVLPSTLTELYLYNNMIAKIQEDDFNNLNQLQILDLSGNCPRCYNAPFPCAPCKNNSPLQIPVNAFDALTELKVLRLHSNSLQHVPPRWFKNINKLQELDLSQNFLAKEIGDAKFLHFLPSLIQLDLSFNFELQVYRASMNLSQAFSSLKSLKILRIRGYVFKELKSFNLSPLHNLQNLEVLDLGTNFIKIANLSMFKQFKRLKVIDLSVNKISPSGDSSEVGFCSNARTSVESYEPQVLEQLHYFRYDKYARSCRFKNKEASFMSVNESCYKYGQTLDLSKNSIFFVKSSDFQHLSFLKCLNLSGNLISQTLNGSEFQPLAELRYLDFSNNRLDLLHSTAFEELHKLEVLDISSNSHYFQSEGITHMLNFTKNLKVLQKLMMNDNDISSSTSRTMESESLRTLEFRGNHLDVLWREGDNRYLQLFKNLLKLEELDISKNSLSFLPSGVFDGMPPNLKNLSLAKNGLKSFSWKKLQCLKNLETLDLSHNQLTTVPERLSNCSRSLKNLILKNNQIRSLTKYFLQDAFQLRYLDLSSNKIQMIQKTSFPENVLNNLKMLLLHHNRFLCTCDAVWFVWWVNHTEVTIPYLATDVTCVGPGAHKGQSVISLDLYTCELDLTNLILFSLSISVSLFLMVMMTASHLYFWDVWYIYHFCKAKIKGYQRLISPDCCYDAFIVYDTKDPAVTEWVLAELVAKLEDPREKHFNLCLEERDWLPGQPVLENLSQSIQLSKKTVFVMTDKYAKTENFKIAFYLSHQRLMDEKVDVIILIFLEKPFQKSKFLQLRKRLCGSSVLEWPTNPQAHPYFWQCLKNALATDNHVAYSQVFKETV

IC50 (human TLR8) | IC50 (human TLR7) | Compound
24 nM | 21 nM | [2H]c1ccc2c(N3C[C@@H]4CN(CCc5ccc(N6C[C@H]7NCCO[C@@H]7C6)nc5)CCN4[C@H](C)C3)ccc(C#N)c2n1 [Example 77, 5-[(4R,9aS)-8-[2-[6-[(4aR,7aR)-3,4,4a,5,7,7a-hexahydro-2H-pyrrolo[3,4-b][1,4]oxazin-6-yl]-3-pyridyl]ethyl]-4-methyl-3,4,6,7,9,9a-hexahydro-1H-pyrazino[1,2-a]pyrazin-2-yl]-2-deuterio-quinoline-8-carbonitrile]
17 nM | 35 nM | [2H]c1ccc2c(N3C[C@@H]4CN(Cc5ccc(N6CCNCC6)nc5)CCN4[C@H](C)C3)ccc(C#N)c2n1 [Example 78, 5-[(4R,9aS)-4-methyl-8-[(6-piperazin-1-yl-3-pyridyl)methyl]-3,4,6,7,9,9a-hexahydro-1H-pyrazino[1,2-a]pyrazin-2-yl]-2-deuterio-quinoline-8-carbonitrile]
6 nM | 19 nM | [2H]c1ccc2c(N3C[C@@H]4CN(Cc5ccc(N6CC(C)(N)C6)nc5C)CCN4[C@H](C)C3)ccc(C#N)c2n1 [Example 79, 5-[(4R,9aS)-8-[[6-(3-amino-3-methyl-azetidin-1-yl)-2-methyl-3-pyridyl]methyl]-4-methyl-3,4,6,7,9,9a-hexahydro-1H-pyrazino[1,2-a]pyrazin-2-yl]-2-deuterio-quinoline-8-carbonitrile]
2 nM | 4 nM | [2H]c1ccc2c(N3C[C@@H]4CN(c5ncc(C(=O)N6CC7(CN(C)C7)C6)cc5C)CCN4[C@H](C)C3)ccc(C#N)c2n1 [Example 102, 5-[(4R,9aR)-4-methyl-8-[3-methyl-5-(6-methyl-2,6-diazaspiro[3.3]heptane-2-carbonyl)-2-pyridyl]-3,4,6,7,9,9a-hexahydro-1H-pyrazino[1,2-a]pyrazin-2-yl]-2-deuterio-quinoline-8-carbonitrile]
4 nM | 6 nM | [2H]c1ccc2c(N3C[C@@H]4CN(c5ncc(C(=O)N6CC7(CN(C)C7)C6)cc5C)CCN4[C@@H](C)C3)ccc(C#N)c2n1 [Example 103, 5-[(4S,9aR)-4-methyl-8-[3-methyl-5-(6-methyl-2,6-diazaspiro[3.3]heptane-2-carbonyl)-2-pyridyl]-3,4,6,7,9,9a-hexahydro-1H-pyrazino[1,2-a]pyrazin-2-yl]-2-deuterio-quinoline-8-carbonitrile]
7 nM | 26 nM | C[C@@H]1CN(c2ccc(C#N)c3ncccc23)C[C@@H]2CN(c3ccnc(N4CC[C@@](C)(N)C4)c3)CCN21 [Example 105, 5-[(4R,9aS)-8-[2-[(3R)-3-amino-3-methyl-pyrrolidin-1-yl]-4-pyridyl]-4-methyl-3,4,6,7,9,9a-hexahydro-1H-pyrazino[1,2-a]pyrazin-2-yl]quinoline-8-carbonitrile]
4 nM | 2 nM | [2H]c1ccc2c(N3C[C@@H]4CN(c5ccc([C@@H]6CNCCO6)cc5)CCN4[C@@H](C)C3)ccc(C#N)c2n1 [Example 106, 5-[(4S,9aS)-4-methyl-8-[4-[(2R)-morpholin-2-yl]phenyl]-3,4,6,7,9,9a-hexahydro-1H-pyrazino[1,2-a]pyrazin-2-yl]-2-deuterio-quinoline-8-carbonitrile]
4 nM | 3 nM | [2H]c1ccc2c(N3C[C@@H]4CN(c5ccc([C@H]6CNCCO6)cc5)CCN4[C@@H](C)C3)ccc(C#N)c2n1 [Example 107, 5-[(4S,9aS)-4-methyl-8-[4-[(2S)-morpholin-2-yl]phenyl]-3,4,6,7,9,9a-hexahydro-1H-pyrazino[1,2-a]pyrazin-2-yl]-2-deuterio-quinoline-8-carbonitrile]
4 nM | 5 nM | [2H]c1ccc2c(N3C[C@@H]4CN(c5ccc(CCN6C[C@H](OC)[C@@H](N)C6)cn5)CCN4[C@H](C)C3)ccc(C#N)c2n1 [Example 109, 5-[(4R,9aR)-8-[5-[2-[(3S,4S)-3-amino-4-methoxy-pyrrolidin-1-yl]ethyl]-2-pyridyl]-4-methyl-3,4,6,7,9,9a-hexahydro-1H-pyrazino[1,2-a]pyrazin-2-yl]-2-deuterio-quinoline-8-carbonitrile]
5 nM | 6 nM | [2H]c1ccc2c(N3C[C@@H]4CN(c5ncc(N6C[C@@H]7C[C@H]6CN7)cc5C)CCN4[C@@H](C)C3)ccc(C#N)c2n1 [Example 111, 5-[(4S,9aR)-8-[5-[(1S,4S)-2,5-diazabicyclo[2.2.1]heptan-2-yl]-3-methyl-2-pyridyl]-4-methyl-3,4,6,7,9,9a-hexahydro-1H-pyrazino[1,2-a]pyrazin-2-yl]-2-deuterio-quinoline-8-carbonitrile]
142 nM | 6 nM | Cc1cc(N2CC3(CN(C)C3)C2)cnc1N1CCN2[C@@H](C1)CN(c1cc(=O)n(C)c3ncccc13)C[C@@H]2C [Example 113, 4-[(4S,9aR)-4-methyl-8-[3-methyl-5-(6-methyl-2,6-diazaspiro[3.3]heptan-2-yl)-2-pyridyl]-3,4,6,7,9,9a-hexahydro-1H-pyrazino[1,2-a]pyrazin-2-yl]-1-methyl-1,8-naphthyridin-2-one]
10 nM | 2 nM | [2H]c1ccc2c(N3C[C@@H]4CN(c5ncc(N6C[C@H]7NCCO[C@@H]7C6)cc5C)CCN4[C@@H](C)C3)ccc(C#N)c2n1 [Example 114, 5-[(4S,9aR)-8-[5-[(4aR,7aR)-3,4,4a,5,7,7a-hexahydro-2H-pyrrolo[3,4-b][1,4]oxazin-6-yl]-3-methyl-2-pyridyl]-4-methyl-3,4,6,7,9,9a-hexahydro-1H-pyrazino[1,2-a]pyrazin-2-yl]-2-deuterio-quinoline-8-carbonitrile]
17 nM | 10 nM | [2H]c1ccc2c(N3C[C@@H]4CN(c5ccc(N6C[C@@H](N)[C@H](OC)C6)nc5)CCN4[C@@H](C)C3)ccc(C#N)c2n1 [Example 115, 5-[(4S,9aR)-8-[6-[(3R,4R)-3-amino-4-methoxy-pyrrolidin-1-yl]-3-pyridyl]-4-methyl-3,4,6,7,9,9a-hexahydro-1H-pyrazino[1,2-a]pyrazin-2-yl]-2-deuterio-quinoline-8-carbonitrile]

Compound | IC50 (human TLR8) | IC50 (human TLR7)
[2H]c1ccc2c(N3C[C@@H]4CN(c5ncc(N6CC7CC(C6)N7)cc5C)CCN4[C@@H](C)C3)ccc(C#N)c2n1 [Example 108, 5-[(4S,9aR)-8-[5-(3,6-diazabicyclo[3.1.1]heptan-3-yl)-3-methyl-2-pyridyl]-4-methyl-3,4,6,7,9,9a-hexahydro-1H-pyrazino[1,2-a]pyrazin-2-yl]-2-deuterio-quinoline-8-carbonitrile] | 6 nM | 3 nM
[2H]c1ccc2c(N3C[C@@H]4CN(c5ccc(N6CC7CCC(C6)N7)nc5)CCN4[C@@H](C)C3)ccc(C#N)c2n1 [Example 112, 5-[(4S,9aR)-8-[6-(3,8-diazabicyclo[3.2.1]octan-3-yl)-3-pyridyl]-4-methyl-3,4,6,7,9,9a-hexahydro-1H-pyrazino[1,2-a]pyrazin-2-yl]-2-deuterio-quinoline-8-carbonitrile] | 10 nM | 4 nM

From patent publication US20220340597A1, “HEXAHYDRO-1H-PYRAZINO[1,2-A]PYRAZINE COMPOUNDS FOR THE TREATMENT OF AUTOIMMUNE DISEASE” (Hoffmann-La Roche Inc., priority 2019, published 2022)
